In the CheMixHub viscosity set:
± gives the uncertainty stated by the source.

Test: xn = mol fraction of the nth substance listed

OCCNCCO + CN(C)C=O
viscosity [mPa·s], 101 kPa
Settings	298.15 K	303.15 K	308.15 K	313.15 K	318.15 K	323.15 K
x2 = 0.7704	2.703 ± 0.19	2.509 ± 0.18	2.34 ± 0.16	2.172 ± 0.15	2.034 ± 0.14	1.879 ± 0.13
x2 = 0.8119	2.172 ± 0.15	2.009 ± 0.14	1.842 ± 0.13	1.682 ± 0.12	1.542 ± 0.11	1.427 ± 0.1
x2 = 0.8519	1.853 ± 0.13	1.686 ± 0.12	1.559 ± 0.11	1.429 ± 0.1	1.295 ± 0.091	1.204 ± 0.085
x2 = 0.8907	1.53 ± 0.11	1.423 ± 0.1	1.321 ± 0.093	1.206 ± 0.085	1.115 ± 0.079	1.03 ± 0.072
x2 = 0.9283	1.357 ± 0.096	1.238 ± 0.087	1.14 ± 0.08	1.043 ± 0.073	0.9653 ± 0.068	0.8984 ± 0.063
x2 = 0.9647	1.169 ± 0.082	1.097 ± 0.077	1.02 ± 0.072	0.9487 ± 0.067	0.8828 ± 0.062	0.8316 ± 0.059

COc1ccccc1N + CNC=O
viscosity [mPa·s], 100 kPa
Settings	x2 = 0.0714	x2 = 0.1715	x2 = 0.2636	x2 = 0.3576	x2 = 0.4701	x2 = 0.5625	x2 = 0.6556	x2 = 0.7454	x2 = 0.8325
303.15 K	4.69 ± 0.067	4.361 ± 0.066	4.058 ± 0.065	3.747 ± 0.065	3.373 ± 0.064	3.065 ± 0.063	2.753 ± 0.062	2.45 ± 0.062	2.155 ± 0.062
308.15 K	4.301 ± 0.066	4.001 ± 0.065	3.725 ± 0.065	3.441 ± 0.064	3.1 ± 0.063	2.817 ± 0.063	2.532 ± 0.062	2.256 ± 0.062	1.986 ± 0.061
313.15 K	3.99 ± 0.065	3.713 ± 0.064	3.456 ± 0.064	3.192 ± 0.063	2.875 ± 0.063	2.613 ± 0.062	2.348 ± 0.062	2.091 ± 0.061	1.841 ± 0.061
318.15 K	3.702 ± 0.065	3.446 ± 0.064	3.209 ± 0.063	2.964 ± 0.063	2.67 ± 0.062	2.428 ± 0.062	2.182 ± 0.062	1.944 ± 0.061	1.711 ± 0.061

C1CCCCC1 + CO
viscosity [mPa·s], 101.32 kPa
Settings	321.15 K	322.15 K	323.15 K
x2 = 0.121	0.5549 ± 0.011	0.5469 ± 0.011	0.539 ± 0.011
x2 = 0.226	0.5465 ± 0.011	0.5386 ± 0.011	0.5465 ± 0.011
x2 = 0.396	0.5423 ± 0.011	0.5334 ± 0.011	0.5239 ± 0.01
x2 = 0.467	0.5629 ± 0.011	0.5508 ± 0.011	0.5356 ± 0.011
x2 = 0.5	0.5933 ± 0.011	0.5559 ± 0.011	0.5379 ± 0.011
x2 = 0.527	0.5771 ± 0.011	0.5464 ± 0.011	0.53 ± 0.011
x2 = 0.637	0.5116 ± 0.01	0.5017 ± 0.01	0.4925 ± 0.01
x2 = 0.724	0.4688 ± 0.01	0.4624 ± 0.01	0.4564 ± 0.01
x2 = 0.762	0.4569 ± 0.01	0.4514 ± 0.01	0.4459 ± 0.01
x2 = 0.798	0.4443 ± 0.01	0.4363 ± 0.01	0.4338 ± 0.01
x2 = 0.83	0.4338 ± 0.01	0.4284 ± 0.01	0.4233 ± 0.01
x2 = 0.86	0.4249 ± 0.01	0.4198 ± 0.01	0.4148 ± 0.01
x2 = 0.913	0.4122 ± 0.01	0.4074 ± 0.01	0.4024 ± 0.01
x2 = 0.959	0.4053 ± 0.01	0.4003 ± 0.01	0.3956 ± 0.01
